Assay results: ChEMBL document CHEMBL5653631, “A Potent and Selective ULK1 Inhibitor Suppresses Autophagy and Sensitizes Cancer Cells to Nutrient Stress” (iScience, 2018)
Values belong to the compound of their own block, whether it stands above or below them.

What was measured:
[1] = target: Serine/threonine-protein kinase PAK 2 (Homo sapiens) (UniProt Q13177); experiment: Inhibition of human recombinant PAK2 at 500 nM in presence of ATP by radiometric assay relative to control
[2] = target: Epithelial discoidin domain-containing receptor 1 (Homo sapiens) (UniProt Q08345); experiment: Inhibition of human recombinant DDR1 at 500 nM related to control ULK1
[3] = target: Serine/threonine-protein kinase SIK1 (Homo sapiens) (UniProt P57059); experiment: Inhibition of human recombinant SIK at 500 nM related to control ULK1
[4] = target: Tyrosine-protein kinase Lck (Homo sapiens) (UniProt P06239); experiment: Inhibition of human recombinant LCK at 15 nM in presence of ATP by radiometric assay relative to control
[5] = target: Dual specificity mitogen-activated protein kinase kinase 2 (Homo sapiens) (UniProt P36507); experiment: Inhibition of human recombinant MAP2K2 at 15 nM in presence of ATP by radiometric assay relative to control
[6] = target: T1, Serine/threonine-protein kinase Nek9 (Homo sapiens) (UniProt Q8TD19); experiment: Inhibition of human recombinant NEK9 at 15 nM in presence of ATP by radiometric assay relative to control
T1 sequence (whole entry): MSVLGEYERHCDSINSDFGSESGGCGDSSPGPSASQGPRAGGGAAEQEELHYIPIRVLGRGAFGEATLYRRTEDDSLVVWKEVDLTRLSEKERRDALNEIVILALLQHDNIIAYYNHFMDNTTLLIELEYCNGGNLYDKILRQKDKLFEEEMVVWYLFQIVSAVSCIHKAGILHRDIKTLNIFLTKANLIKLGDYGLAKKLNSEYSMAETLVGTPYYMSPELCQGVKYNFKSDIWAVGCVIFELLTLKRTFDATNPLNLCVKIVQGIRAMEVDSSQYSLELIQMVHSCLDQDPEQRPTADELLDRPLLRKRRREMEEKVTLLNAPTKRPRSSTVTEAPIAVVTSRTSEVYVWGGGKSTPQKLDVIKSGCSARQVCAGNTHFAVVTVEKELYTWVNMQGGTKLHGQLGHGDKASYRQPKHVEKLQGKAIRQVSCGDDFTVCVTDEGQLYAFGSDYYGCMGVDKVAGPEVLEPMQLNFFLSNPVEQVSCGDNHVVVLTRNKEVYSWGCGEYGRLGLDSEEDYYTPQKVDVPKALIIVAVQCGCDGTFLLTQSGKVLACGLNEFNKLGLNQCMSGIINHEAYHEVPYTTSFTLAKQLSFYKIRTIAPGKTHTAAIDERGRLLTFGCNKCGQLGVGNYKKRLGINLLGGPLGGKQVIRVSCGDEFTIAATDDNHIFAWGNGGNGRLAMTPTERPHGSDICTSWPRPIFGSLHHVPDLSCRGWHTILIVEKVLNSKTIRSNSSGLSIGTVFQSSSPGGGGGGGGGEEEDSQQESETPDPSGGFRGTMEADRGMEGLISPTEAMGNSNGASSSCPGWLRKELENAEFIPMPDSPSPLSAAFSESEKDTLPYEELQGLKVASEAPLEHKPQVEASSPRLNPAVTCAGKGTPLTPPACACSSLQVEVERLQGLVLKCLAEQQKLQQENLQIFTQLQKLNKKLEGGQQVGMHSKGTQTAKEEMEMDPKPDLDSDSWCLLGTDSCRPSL

[7] = target: Protein kinase C beta type (Homo sapiens) (UniProt P05771); experiment: Inhibition of human recombinant PKCb at 15 nM in presence of ATP by radiometric assay relative to control
[8] = target: Serine/threonine-protein kinase SIK3 (Homo sapiens) (UniProt Q9Y2K2); experiment: Inhibition of human recombinant QSK at 15 nM in presence of ATP by radiometric assay relative to control
[9] = target: Macrophage-stimulating protein receptor (Homo sapiens) (UniProt Q04912); experiment: Inhibition of human recombinant RON at 15 nM in presence of ATP by radiometric assay relative to control
[10] = target: Mitogen-activated protein kinase kinase kinase 20 (Homo sapiens) (UniProt Q9NYL2); experiment: Inhibition of human recombinant ZAK at 15 nM in presence of ATP by radiometric assay relative to control
[11] = target: T2, Mitogen-activated protein kinase 13 (Homo sapiens) (UniProt O15264); experiment: Inhibition of human recombinant p38delta at 15 nM related to control ULK1
T2 sequence (whole entry): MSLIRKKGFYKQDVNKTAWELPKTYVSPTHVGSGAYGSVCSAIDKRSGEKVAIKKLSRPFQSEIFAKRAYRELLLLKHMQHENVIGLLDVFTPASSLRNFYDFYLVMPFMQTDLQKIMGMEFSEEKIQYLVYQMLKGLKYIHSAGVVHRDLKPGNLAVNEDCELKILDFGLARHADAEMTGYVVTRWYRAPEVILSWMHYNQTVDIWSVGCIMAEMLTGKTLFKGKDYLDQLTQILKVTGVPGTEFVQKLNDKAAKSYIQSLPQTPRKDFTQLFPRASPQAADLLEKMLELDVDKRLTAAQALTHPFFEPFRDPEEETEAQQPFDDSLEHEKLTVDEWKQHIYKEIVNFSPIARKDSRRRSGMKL

[12] = target: Tyrosine-protein kinase HCK (Homo sapiens) (UniProt P08631); experiment: Inhibition of human recombinant HCK at 40 nM related to control ULK1
[13] = target: T3, Mitogen-activated protein kinase kinase kinase 3 (Homo sapiens) (UniProt Q99759); experiment: Inhibition of human recombinant MAP3K3 at 40 nM related to control ULK1
T3 sequence (whole entry): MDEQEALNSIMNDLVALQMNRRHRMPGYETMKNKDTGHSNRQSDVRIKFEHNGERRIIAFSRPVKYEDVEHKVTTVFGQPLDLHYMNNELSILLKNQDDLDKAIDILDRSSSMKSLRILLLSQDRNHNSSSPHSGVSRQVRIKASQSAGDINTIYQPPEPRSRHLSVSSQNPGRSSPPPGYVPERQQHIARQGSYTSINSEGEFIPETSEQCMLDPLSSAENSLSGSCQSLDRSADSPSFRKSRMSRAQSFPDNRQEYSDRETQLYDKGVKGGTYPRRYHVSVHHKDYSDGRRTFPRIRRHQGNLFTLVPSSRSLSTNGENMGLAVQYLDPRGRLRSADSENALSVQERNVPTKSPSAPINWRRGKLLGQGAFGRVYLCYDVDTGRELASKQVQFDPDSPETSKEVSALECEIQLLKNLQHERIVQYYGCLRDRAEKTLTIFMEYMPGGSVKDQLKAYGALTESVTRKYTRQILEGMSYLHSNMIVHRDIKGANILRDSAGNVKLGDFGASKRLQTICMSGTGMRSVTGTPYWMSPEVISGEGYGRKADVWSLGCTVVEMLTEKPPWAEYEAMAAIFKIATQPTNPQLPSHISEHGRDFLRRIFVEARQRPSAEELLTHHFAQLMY

[14] = target: 3-phosphoinositide-dependent protein kinase 1 (Homo sapiens) (UniProt O15530); experiment: Inhibition of human recombinant PDK1 at 40 nM in presence of ATP by radiometric assay relative to control

Tyrosine-protein kinase HCK (Homo sapiens), sequence (P08631 2-526 limits assumed): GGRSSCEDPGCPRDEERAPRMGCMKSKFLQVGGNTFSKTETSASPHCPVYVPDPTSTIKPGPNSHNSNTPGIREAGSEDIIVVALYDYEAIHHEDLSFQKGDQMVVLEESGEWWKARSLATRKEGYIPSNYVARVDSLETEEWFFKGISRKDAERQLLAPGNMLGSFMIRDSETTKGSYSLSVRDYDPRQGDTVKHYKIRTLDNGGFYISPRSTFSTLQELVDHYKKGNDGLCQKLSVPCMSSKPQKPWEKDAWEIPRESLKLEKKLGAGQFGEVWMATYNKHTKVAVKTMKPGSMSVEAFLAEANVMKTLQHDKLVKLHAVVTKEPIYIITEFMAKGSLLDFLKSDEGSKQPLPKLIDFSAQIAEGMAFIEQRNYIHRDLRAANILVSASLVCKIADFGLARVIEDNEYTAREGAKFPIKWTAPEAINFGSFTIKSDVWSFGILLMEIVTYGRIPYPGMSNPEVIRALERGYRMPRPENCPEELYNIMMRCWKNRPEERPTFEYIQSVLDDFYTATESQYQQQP
Serine/threonine-protein kinase SIK3 (Homo sapiens), sequence (Q9Y2K2 whole entry, looked up): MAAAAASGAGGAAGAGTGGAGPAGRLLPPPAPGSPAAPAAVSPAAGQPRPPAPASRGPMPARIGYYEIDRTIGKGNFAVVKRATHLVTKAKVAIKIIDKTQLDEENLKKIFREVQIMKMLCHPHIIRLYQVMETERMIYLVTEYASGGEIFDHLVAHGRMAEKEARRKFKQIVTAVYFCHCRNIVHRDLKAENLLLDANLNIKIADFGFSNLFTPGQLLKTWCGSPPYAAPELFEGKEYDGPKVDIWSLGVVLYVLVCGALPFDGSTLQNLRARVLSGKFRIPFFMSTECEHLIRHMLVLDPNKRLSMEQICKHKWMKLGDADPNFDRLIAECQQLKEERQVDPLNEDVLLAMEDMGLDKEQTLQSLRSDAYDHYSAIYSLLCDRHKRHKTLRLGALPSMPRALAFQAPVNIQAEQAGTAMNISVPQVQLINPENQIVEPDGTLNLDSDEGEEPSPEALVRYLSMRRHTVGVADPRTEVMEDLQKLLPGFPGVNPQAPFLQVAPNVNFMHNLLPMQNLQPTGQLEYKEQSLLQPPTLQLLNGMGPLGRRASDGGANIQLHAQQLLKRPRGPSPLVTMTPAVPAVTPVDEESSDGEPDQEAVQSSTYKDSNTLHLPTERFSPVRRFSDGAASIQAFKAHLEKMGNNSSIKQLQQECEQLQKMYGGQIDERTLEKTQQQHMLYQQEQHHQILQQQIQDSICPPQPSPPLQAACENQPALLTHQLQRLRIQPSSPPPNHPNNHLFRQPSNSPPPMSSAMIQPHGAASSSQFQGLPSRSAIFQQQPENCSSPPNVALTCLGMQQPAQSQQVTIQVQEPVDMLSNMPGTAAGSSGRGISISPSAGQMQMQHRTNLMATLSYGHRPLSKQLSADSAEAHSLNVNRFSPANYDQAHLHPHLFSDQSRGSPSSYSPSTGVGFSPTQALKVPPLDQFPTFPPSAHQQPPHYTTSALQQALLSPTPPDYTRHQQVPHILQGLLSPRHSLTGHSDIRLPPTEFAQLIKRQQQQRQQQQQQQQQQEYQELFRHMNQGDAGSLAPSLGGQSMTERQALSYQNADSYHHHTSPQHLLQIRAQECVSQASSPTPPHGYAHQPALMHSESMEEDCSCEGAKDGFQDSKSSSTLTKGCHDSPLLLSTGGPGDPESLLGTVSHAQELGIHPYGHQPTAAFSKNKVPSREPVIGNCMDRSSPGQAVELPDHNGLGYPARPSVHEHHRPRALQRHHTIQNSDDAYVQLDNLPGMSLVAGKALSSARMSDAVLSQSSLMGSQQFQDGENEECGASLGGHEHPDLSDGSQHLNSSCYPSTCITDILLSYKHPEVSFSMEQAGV
Macrophage-stimulating protein receptor (Homo sapiens), sequence (Q04912 25-304 limits assumed): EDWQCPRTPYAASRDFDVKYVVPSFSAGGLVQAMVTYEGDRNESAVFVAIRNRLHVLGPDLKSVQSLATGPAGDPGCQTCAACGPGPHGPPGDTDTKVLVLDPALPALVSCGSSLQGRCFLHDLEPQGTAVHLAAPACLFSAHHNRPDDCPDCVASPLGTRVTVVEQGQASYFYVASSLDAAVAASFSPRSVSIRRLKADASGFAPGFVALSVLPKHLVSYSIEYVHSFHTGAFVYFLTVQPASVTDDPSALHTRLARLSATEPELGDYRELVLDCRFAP
Macrophage-stimulating protein receptor (Homo sapiens), sequence (Q04912 310-1400 limits assumed): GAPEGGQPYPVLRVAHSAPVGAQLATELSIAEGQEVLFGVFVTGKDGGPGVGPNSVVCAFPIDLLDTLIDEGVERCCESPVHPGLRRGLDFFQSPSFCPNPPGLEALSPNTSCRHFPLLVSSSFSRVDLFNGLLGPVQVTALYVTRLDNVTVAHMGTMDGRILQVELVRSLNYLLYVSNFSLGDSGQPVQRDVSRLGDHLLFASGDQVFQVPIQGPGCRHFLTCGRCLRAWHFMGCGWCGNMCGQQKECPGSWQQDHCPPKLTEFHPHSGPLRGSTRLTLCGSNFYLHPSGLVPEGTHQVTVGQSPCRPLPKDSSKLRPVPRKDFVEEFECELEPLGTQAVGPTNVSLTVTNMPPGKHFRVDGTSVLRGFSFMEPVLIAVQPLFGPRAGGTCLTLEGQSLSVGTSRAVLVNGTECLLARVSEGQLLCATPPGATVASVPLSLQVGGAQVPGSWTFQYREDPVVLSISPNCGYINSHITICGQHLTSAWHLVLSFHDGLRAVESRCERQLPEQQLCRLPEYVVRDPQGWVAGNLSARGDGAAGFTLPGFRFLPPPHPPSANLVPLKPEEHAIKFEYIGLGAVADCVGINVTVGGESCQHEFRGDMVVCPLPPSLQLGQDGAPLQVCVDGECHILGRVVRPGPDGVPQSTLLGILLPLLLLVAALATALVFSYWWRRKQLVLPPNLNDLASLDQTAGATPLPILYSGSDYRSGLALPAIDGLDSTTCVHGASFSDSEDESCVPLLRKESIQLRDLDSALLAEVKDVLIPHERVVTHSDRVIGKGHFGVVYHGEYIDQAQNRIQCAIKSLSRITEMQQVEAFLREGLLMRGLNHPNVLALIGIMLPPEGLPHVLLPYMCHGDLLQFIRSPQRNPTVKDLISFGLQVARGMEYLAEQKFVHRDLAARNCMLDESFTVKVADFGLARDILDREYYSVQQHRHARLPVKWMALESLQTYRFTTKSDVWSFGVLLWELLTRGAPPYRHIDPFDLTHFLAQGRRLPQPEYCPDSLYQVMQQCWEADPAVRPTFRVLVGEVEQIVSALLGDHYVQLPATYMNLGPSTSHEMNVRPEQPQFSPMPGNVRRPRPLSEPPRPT
Tyrosine-protein kinase Lck (Homo sapiens), sequence (P06239 2-509 limits assumed): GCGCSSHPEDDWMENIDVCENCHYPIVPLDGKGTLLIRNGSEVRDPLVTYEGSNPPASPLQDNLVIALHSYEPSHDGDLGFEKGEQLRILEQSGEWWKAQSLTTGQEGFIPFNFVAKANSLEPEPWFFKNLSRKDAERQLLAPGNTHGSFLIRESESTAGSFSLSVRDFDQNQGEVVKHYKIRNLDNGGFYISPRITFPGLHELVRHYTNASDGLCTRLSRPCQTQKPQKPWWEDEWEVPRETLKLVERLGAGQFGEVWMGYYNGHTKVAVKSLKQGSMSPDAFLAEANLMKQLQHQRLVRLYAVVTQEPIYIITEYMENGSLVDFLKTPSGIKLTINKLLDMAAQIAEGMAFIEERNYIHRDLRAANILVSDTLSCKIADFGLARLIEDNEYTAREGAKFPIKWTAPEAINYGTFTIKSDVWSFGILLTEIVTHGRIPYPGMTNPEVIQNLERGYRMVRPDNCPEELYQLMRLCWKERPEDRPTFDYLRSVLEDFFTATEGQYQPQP
Epithelial discoidin domain-containing receptor 1 (Homo sapiens), sequence (Q08345 whole entry, the tested form may be a part): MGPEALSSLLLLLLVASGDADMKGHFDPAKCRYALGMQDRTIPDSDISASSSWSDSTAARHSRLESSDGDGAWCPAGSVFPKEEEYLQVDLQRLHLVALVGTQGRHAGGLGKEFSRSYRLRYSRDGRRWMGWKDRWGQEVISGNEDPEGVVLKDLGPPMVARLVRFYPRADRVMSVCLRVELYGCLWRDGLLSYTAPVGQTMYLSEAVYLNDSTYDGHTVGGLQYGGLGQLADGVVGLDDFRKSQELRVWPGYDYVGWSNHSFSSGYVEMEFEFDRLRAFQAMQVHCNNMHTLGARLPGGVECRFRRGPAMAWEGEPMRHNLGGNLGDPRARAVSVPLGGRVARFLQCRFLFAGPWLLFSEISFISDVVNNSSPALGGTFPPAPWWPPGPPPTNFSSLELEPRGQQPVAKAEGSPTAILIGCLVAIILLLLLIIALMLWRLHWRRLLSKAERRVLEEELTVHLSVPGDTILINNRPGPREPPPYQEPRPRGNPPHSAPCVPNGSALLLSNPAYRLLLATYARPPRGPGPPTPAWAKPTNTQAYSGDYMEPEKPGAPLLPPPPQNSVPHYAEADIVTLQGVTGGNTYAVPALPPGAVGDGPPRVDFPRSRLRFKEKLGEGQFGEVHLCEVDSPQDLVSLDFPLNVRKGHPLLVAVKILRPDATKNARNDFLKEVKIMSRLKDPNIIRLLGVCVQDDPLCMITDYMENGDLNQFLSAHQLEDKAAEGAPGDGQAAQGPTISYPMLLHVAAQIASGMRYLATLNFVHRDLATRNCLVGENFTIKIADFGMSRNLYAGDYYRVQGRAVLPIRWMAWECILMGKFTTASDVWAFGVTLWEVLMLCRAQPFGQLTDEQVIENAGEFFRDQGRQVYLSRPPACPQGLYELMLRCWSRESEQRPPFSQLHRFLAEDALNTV
Dual specificity mitogen-activated protein kinase kinase 2 (Homo sapiens), sequence (P36507 whole entry): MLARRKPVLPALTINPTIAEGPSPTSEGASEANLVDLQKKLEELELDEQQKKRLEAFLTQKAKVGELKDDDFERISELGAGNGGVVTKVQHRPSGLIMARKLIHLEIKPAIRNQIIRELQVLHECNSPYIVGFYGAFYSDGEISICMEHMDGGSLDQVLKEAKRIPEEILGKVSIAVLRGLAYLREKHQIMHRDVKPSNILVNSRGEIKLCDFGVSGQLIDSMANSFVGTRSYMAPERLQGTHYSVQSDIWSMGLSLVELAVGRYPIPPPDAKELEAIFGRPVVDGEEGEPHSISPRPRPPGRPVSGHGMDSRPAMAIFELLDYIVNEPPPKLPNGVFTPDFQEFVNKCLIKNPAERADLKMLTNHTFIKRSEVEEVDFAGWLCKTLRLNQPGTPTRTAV

- inhibition [1]: 14%
- fold change (FC) [2]: 0.64
- fold change (FC) [3]: 0.27
Structure (SMILES): CNC(=O)c1ccccc1Oc1nc(Nc2cc(OC)c(OC)c(OC)c2)ncc1Br

- inhibition [4]: 11%
- inhibition [5]: 0%
- inhibition [7]: 0%
- inhibition [8]: 86%
- inhibition [9]: 2%
- inhibition [10]: 26%
- fold change (FC) [11]: 0.07
Structure (SMILES): CC(C)[C@H](NC(=O)c1cc(-c2cnn3cc(-c4ccc(OCCN5CCCCC5)cc4)cnc23)cs1)C(F)(F)F
- inhibition [6]: 22%

- fold change (FC) [12]: 0
- fold change (FC) [13]: 0
- inhibition [14]: 0%
Structure (SMILES): O=C(N[C@@H](C1CC1)C(F)(F)F)c1cc(-c2cnn3cc(-c4ccc(F)cc4)cnc23)cs1
